Assay results as given in PubChem BioAssay (NCI).
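Where inhibition never reached the appropriate level, the endpoint shown equals the highest concentration tested. Otherwise, values were interpolated linearly from a five-concentration, 48-hour dose response in 96-well plates. TGI denotes the concentration required for complete inhibition of growth.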

How the values were obtained:
Experiment in all cases: NCI anticancer screen, dose series, 48 h
CCRF-CEM leukemia = system: CCRF-CEM leukemia
LOX IMVI melanoma = system: LOX IMVI melanoma
MALME-3M melanoma = system: MALME-3M melanoma
IGROV1 ovarian = system: IGROV1 ovarian
HOP-92 NSCLC = system: HOP-92 NSCLC
SK-MEL-28 melanoma = system: SK-MEL-28 melanoma
SK-MEL-2 melanoma = system: SK-MEL-2 melanoma
EKVX NSCLC = system: EKVX NSCLC
TK-10 renal = system: TK-10 renal
OVCAR-8 ovarian = system: OVCAR-8 ovarian
SN12C renal = system: SN12C renal
SR leukemia = system: SR leukemia
OVCAR-5 ovarian = system: OVCAR-5 ovarian
786-0 renal = system: 786-0 renal
UO-31 renal = system: UO-31 renal
SNB-75 CNS = system: SNB-75 CNS
DU-145 prostate = system: DU-145 prostate
MCF7 breast = system: MCF7 breast
BT-549 breast = system: BT-549 breast
MDA-N = system: MDA-N

Row | Structure (SMILES) | TGI (CCRF-CEM leukemia) [µM] | TGI (LOX IMVI melanoma) [µM] | TGI (MALME-3M melanoma) [µM] | TGI (IGROV1 ovarian) [µM] | TGI (HOP-92 NSCLC) [µM] | TGI (SK-MEL-28 melanoma) [µM] | TGI (SK-MEL-2 melanoma) [µM] | TGI (EKVX NSCLC) [µM] | TGI (TK-10 renal) [µM] | TGI (OVCAR-8 ovarian) [µM] | TGI (SN12C renal) [µM] | TGI (SR leukemia) [µM] | TGI (OVCAR-5 ovarian) [µM] | TGI (786-0 renal) [µM] | TGI (UO-31 renal) [µM] | TGI (SNB-75 CNS) [µM] | TGI (DU-145 prostate) [µM] | TGI (MCF7 breast) [µM] | TGI (BT-549 breast) [µM] | TGI (MDA-N) [µM]
1 | C/C=C1\CN2CCc3c([nH]c4ccccc34)C2C=C1CCO (centres undefined) | > 340 | > 340 | > 340 | > 340 | > 340 | > 340 | > 340 | > 340 | > 340 | > 340 | > 340 | > 340 | > 340 | > 340 | – | – | – | – | – | –
2 | C=C(C(=C)N1N=NC2C3CCC(C3)C21)N1N=NC2C3CCC(C3)C21 (centres undefined) | > 100 | > 100 | > 100 | > 100 | > 100 | > 100 | – | – | > 100 | > 100 | > 100 | > 100 | > 100 | > 100 | > 100 | > 100 | – | – | – | –
3 | CCOC(=O)c1cnc2sc3ccc4ccccc4c3n2c1=O | 82.6 | > 100 | > 100 | > 100 | > 100 | > 100 | > 100 | > 100 | > 100 | > 100 | > 100 | > 100 | > 100 | > 100 | 94.6 | > 100 | – | – | – | –
4 | CC(=O)O[C@@]12CO[C@@H]1C[C@@H](O)[C@@]1(C)C(=O)[C@H](O)C3=C(C)[C@@H](OC(=O)[C@H](O)[C@@H](NC(=O)c4ccccc4)c4ccccc4)C[C@@](O)([C@@H](OC(=O)c4ccccc4)C12)C3(C)C (some centres undefined) | > 67.5 | 41.9 | – | > 100 | – | > 100 | 0.887 | > 100 | > 72.5 | > 100 | > 100 | > 50.1 | – | > 100 | > 78.8 | 0.0815 | > 100 | > 100 | > 100 | –
5 | C#CCN(N=O)C(=O)NCCCCC(NC(C)=O)C(=O)NCc1ccccc1 (centres undefined) | > 100 | > 100 | > 100 | > 100 | > 100 | > 100 | – | > 100 | > 100 | > 100 | > 100 | > 100 | > 100 | > 100 | > 100 | > 100 | – | – | – | –
6 | CN(C(=O)C1=CCC2(CC1)OCCO2)c1ccccc1I | > 100 | > 100 | – | > 100 | > 100 | > 100 | > 100 | > 100 | > 100 | > 100 | > 100 | > 100 | > 100 | > 100 | > 100 | > 100 | > 100 | > 100 | – | > 100
7 | COC(=O)C(Br)C1CCc2ccccc21 (centres undefined) | > 100 | > 100 | > 100 | > 100 | > 100 | > 100 | – | – | > 100 | > 100 | > 100 | > 100 | > 100 | > 100 | > 100 | – | – | – | – | –
8 | O=C1c2ccccc2C(=O)C1C(c1ccc(F)cc1)C1C(=O)c2ccccc2C1=O | > 100 | > 100 | > 100 | – | > 100 | > 100 | > 100 | > 100 | > 100 | > 100 | > 100 | > 100 | > 100 | > 100 | > 100 | > 100 | – | – | – | –
9 | CN(C)CCNC(=O)Cn1cnc2cccc([N+](=O)[O-])c2c1=O | > 100 | > 100 | > 100 | > 100 | – | > 100 | > 100 | > 100 | > 100 | – | > 100 | > 100 | > 100 | > 100 | > 100 | – | > 100 | > 100 | – | > 100
10 | COC(=O)C(C(=O)C(=O)Nc1cccc([N+](=O)[O-])c1)c1nc2ccc([N+](=O)[O-])cc2[nH]c1=O (centres undefined) | > 100 | > 100 | > 100 | > 100 | – | > 100 | > 100 | > 100 | > 100 | > 100 | > 100 | > 100 | > 100 | > 100 | > 100 | > 100 | – | – | – | –
11 | CC1=NN(c2nc(N)nc(C/C(N)=N/O)n2)C(C)(C)C1 | > 100 | > 100 | > 100 | > 100 | > 100 | > 100 | – | > 100 | > 100 | > 100 | > 100 | – | > 100 | > 100 | > 100 | > 100 | > 100 | > 100 | > 100 | –
12 | NC1=NN(c2ccccc2)C(=O)C1C(=O)C(=O)Nc1nccs1 (centres undefined) | > 100 | > 100 | > 100 | > 100 | > 100 | > 100 | > 100 | > 100 | > 100 | > 100 | > 100 | > 100 | > 100 | > 100 | > 100 | > 100 | – | – | – | –
13 | CC(C)Oc1cccc(N2C(=NCCc3c[nH]c4ccccc34)Nc3ccncc3S2(=O)=O)c1 | > 100 | > 100 | > 100 | > 100 | > 100 | > 100 | > 100 | > 100 | > 100 | > 100 | > 100 | > 100 | > 100 | 5.35 | > 100 | > 100 | > 100 | > 100 | > 100 | –
14 | CCCCCCCCCC(=O)OCC1OC(n2cc(F)c(=O)[nH]c2=O)C(NC(=O)OCc2ccccc2)C(OC(=O)CCCCCCCCC)C1O (centres undefined) | > 100 | 30.2 | 90.6 | > 100 | 36.3 | > 100 | > 100 | > 100 | > 100 | 80.1 | 29.6 | 81.2 | – | 36.1 | > 100 | > 100 | – | – | – | –
